Assay results taken from ChEMBL document CHEMBL1949542, “Reductive activation of 5-fluorodeoxyuridine prodrug possessing azide methyl group by hypoxic X-irradiation” (Bioorg Med Chem Lett, 2012).
The source made the active and inactive calls. The rule behind the calls is not given here.

Experiments:
Assay type in all cases: functional, cell-based
[1] = system: A549; test: Cytotoxicity against human A549 cells assessed as cell viability after 72 hrs by WST-8 assay; conditions: A549, 72 h
[2] = system: A549; test: Cytocidal activity against human A549 cells assessed as cell viability at 200 nM compound X-irradiated under hypoxic conditions measured after 72 hrs by WST-8 assay
[3] = system: A549; test: Cytotoxicity against human A549 cells assessed as cell viability under hypoxic condition at 100 nM after 72 hrs by WST-8 assay
[4] = system: A549; test: Cytotoxicity against human A549 cells assessed as cell viability at 200 nM compound X-irradiated under aerobic conditions measured after 72 hrs by WST-8 assay

Row | Structure (SMILES) | IC50 [1] | Activity [2] | Activity [3] | Activity [4]
1 | O=c1[nH]c(=O)n([C@H]2C[C@H](O)[C@@H](CO)O2)cc1F [FLOXURIDINE] | 47 nM | – | – | –
2 | [N-]=[N+]=NCn1c(=O)c(F)cn([C@H]2C[C@H](O)[C@@H](CO)O2)c1=O | 1470 nM | inactive | inactive | inactive
